Experiments:
Assay in all cases: Kinase profiling in a biochemical assay panel (mobility shift assays and ELISA), %-inhibition at 1 μM; selectivity entropy
[1] = target: T1, panel of more than 300 wild-type and mutant kinases (313 kinase panel) (Homo sapiens, UniProt Q96BR1); details: kinase SGK3; 1 μM
T1 sequence (Q96BR1 1-496): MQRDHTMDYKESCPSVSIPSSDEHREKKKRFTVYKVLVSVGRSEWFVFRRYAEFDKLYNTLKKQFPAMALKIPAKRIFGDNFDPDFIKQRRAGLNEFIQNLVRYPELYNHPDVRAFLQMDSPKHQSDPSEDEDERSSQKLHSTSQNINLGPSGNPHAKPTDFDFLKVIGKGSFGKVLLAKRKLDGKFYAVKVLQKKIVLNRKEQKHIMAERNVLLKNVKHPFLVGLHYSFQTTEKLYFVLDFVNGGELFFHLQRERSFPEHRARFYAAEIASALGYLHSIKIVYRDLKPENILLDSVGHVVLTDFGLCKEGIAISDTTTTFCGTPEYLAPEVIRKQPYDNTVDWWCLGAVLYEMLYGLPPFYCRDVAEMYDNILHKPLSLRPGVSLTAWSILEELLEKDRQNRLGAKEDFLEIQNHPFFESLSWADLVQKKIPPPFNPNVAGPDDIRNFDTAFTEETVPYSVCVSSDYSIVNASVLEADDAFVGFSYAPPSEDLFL

[2] = target: panel of more than 300 wild-type and mutant kinases (313 kinase panel) (Homo sapiens, UniProt Q9Y2H1); details: kinase NDR2; 1 μM
[3] = target: panel of more than 300 wild-type and mutant kinases (313 kinase panel) (Homo sapiens, UniProt P22607, K650M); details: kinase FGFR3(K650M); compound at 1 μM
[4] = target: T2, panel of more than 300 wild-type and mutant kinases (313 kinase panel) (Homo sapiens, UniProt Q96PY6); details: kinase NEK1; 1 μM
T2 sequence (Q96PY6 1-1258): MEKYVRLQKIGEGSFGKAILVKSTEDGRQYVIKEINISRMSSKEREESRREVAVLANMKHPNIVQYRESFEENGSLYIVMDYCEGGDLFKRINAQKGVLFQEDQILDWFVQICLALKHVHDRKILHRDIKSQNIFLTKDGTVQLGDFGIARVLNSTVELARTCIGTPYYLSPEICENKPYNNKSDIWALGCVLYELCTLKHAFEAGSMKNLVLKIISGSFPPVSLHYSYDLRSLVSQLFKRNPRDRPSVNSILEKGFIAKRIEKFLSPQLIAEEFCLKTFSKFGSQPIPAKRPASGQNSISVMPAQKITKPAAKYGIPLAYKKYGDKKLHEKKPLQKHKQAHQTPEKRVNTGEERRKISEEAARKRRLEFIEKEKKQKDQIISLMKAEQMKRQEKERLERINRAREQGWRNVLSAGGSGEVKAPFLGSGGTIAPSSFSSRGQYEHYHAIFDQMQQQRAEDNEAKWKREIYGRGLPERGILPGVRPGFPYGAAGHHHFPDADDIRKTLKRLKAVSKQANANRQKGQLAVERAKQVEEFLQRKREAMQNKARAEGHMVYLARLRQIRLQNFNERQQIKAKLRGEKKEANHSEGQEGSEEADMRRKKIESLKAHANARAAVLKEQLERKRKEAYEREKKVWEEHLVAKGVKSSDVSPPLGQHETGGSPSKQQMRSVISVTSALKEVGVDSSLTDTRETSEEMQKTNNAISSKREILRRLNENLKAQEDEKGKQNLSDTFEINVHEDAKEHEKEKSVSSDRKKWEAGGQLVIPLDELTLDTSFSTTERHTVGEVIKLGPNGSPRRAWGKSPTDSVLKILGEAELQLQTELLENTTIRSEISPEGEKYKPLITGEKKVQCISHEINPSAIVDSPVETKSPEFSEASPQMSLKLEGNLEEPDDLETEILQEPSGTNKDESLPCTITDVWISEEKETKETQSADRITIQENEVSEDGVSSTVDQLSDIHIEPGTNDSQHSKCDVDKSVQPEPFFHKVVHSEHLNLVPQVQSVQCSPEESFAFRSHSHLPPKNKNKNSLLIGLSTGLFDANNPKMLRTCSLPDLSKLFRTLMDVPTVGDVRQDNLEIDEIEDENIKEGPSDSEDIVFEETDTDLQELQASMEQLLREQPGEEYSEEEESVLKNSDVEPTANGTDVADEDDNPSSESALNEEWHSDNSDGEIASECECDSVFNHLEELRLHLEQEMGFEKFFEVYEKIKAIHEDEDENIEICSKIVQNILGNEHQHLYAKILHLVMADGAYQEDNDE

[5] = target: panel of more than 300 wild-type and mutant kinases (313 kinase panel) (Homo sapiens, UniProt P07947); details: kinase YES; compound at 1 μM
[6] = target: panel of more than 300 wild-type and mutant kinases (313 kinase panel) (Homo sapiens, UniProt P05771); details: kinase PKCβ1; 1 μM

panel of more than 300 wild-type and mutant kinases (313 kinase panel) (Homo sapiens, UniProt Q9Y2H1), sequence (Q9Y2H1 whole entry, stated change not applied): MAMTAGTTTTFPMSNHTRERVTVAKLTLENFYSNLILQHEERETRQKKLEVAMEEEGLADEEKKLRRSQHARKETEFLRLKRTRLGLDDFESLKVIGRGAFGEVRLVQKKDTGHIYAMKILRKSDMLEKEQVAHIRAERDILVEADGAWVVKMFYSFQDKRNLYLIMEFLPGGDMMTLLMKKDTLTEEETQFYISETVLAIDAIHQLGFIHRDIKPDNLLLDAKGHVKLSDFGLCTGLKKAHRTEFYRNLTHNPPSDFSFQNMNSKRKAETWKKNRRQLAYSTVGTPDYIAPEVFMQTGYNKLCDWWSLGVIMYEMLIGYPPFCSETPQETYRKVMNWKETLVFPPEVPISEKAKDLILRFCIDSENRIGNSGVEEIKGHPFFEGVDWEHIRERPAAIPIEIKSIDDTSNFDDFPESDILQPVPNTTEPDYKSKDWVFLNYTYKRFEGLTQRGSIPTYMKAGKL
panel of more than 300 wild-type and mutant kinases (313 kinase panel) (Homo sapiens, UniProt P07947), sequence (P07947 whole entry, change not shown): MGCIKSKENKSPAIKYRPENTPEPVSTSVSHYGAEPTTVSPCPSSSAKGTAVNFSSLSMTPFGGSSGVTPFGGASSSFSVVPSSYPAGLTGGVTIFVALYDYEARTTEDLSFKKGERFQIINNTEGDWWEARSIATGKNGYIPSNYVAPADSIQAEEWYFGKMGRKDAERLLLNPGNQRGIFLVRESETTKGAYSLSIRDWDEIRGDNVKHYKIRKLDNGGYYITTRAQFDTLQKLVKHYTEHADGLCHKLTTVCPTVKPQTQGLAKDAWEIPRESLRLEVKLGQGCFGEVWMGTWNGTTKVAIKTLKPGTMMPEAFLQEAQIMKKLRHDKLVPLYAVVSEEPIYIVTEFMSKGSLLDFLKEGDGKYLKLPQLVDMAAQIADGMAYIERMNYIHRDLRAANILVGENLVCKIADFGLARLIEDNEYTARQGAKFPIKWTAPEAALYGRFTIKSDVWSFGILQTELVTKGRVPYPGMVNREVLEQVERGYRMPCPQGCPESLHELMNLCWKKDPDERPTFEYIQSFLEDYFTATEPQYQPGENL
panel of more than 300 wild-type and mutant kinases (313 kinase panel) (Homo sapiens, UniProt P22607, K650M), sequence (P22607 23-806 K650M): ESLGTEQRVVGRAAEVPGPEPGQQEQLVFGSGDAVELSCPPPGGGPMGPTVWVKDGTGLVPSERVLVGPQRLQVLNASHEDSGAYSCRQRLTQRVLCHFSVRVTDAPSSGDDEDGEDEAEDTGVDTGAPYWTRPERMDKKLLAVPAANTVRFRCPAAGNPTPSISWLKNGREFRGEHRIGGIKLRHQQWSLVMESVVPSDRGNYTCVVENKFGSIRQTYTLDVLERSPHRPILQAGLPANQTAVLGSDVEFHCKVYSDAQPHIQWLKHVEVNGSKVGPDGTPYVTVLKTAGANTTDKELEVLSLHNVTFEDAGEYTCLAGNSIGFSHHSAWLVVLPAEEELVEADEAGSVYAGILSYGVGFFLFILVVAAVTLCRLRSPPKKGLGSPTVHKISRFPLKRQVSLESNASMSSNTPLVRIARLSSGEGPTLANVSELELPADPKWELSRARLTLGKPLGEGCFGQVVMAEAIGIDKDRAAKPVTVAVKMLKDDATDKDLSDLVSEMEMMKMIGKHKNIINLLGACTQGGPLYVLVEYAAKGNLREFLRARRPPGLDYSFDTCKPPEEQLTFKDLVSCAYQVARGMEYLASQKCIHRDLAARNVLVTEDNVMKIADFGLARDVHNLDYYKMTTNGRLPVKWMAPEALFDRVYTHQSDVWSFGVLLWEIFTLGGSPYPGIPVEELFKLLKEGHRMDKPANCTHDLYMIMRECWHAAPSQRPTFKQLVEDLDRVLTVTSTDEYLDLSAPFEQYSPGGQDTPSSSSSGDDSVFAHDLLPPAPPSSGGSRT

Compound: CC(C)(C)c1nc(-c2cccc(NS(=O)(=O)c3c(F)cccc3F)c2F)c(-c2ccnc(N)n2)s1 [dabrafenib]
- %-inhibition of SGK3 [1]: 0.0854%
- %-inhibition of NDR2 [2]: -2%
- %-inhibition of FGFR3(K650M) [3]: 7%
- %-inhibition of NEK1 [4]: 24%

Compound: CCCS(=O)(=O)Nc1ccc(F)c(C(=O)c2c[nH]c3ncc(-c4ccc(Cl)cc4)cc23)c1F [vemurafenib]
- %-inhibition of SGK3 [1]: -2.38%
- %-inhibition of NDR2 [2]: -2.51%
- %-inhibition of FGFR3(K650M) [3]: 8%
- %-inhibition of YES [5]: 74%
- %-inhibition of PKCβ1 [6]: -3.81%
- %-inhibition of NEK1 [4]: -2.74%

Compound: Cc1nc(Nc2ncc(C(=O)Nc3c(C)cccc3Cl)s2)cc(N2CCN(CCO)CC2)n1 [dasatinib]
- %-inhibition of SGK3 [1]: 1.18%
- %-inhibition of NDR2 [2]: -6%

Compound: C[C@@H](Oc1cc(-c2cnn(C3CCNCC3)c2)cnc1N)c1c(Cl)ccc(F)c1Cl [crizotinib]
- %-inhibition of SGK3 [1]: -3%
- %-inhibition of NDR2 [2]: -4.76%
- %-inhibition of FGFR3(K650M) [3]: 61%
- %-inhibition of YES [5]: 65%
- %-inhibition of PKCβ1 [6]: -3%
- %-inhibition of NEK1 [4]: 2.24%

Compound: Cc1ccc(C(=O)Nc2ccc(CN3CCN(C)CC3)c(C(F)(F)F)c2)cc1C#Cc1cnc2cccnn12 [ponatinib]
- %-inhibition of SGK3 [1]: -1.1%
- %-inhibition of FGFR3(K650M) [3]: 100%
- %-inhibition of YES [5]: 101%
- %-inhibition of PKCβ1 [6]: -5.61%
- %-inhibition of NEK1 [4]: 78%

Compound: O=S(=O)(c1cccc2cnccc12)N1CCCNCC1 [fasudil]
- %-inhibition of SGK3 [1]: 7%
- %-inhibition of NDR2 [2]: 25%
- %-inhibition of FGFR3(K650M) [3]: -0.618%
- %-inhibition of YES [5]: 1.18%
- %-inhibition of PKCβ1 [6]: 16%
- %-inhibition of NEK1 [4]: -6.36%

Compound: COc1cc(Nc2c(C#N)cnc3cc(OCCCN4CCN(C)CC4)c(OC)cc23)c(Cl)cc1Cl [bosutinib]
- %-inhibition of SGK3 [1]: -7%
- %-inhibition of YES [5]: 97%
- %-inhibition of PKCβ1 [6]: 3.68%

Compound: CO[C@H]1C[C@@H]2CC[C@@H](C)[C@@](O)(O2)C(=O)C(=O)N2CCCC[C@H]2C(=O)O[C@H]([C@H](C)C[C@@H]2CC[C@@H](OCCO)[C@H](OC)C2)CC(=O)[C@H](C)/C=C(\C)[C@@H](O)[C@@H](OC)C(=O)[C@H](C)C[C@H](C)/C=C/C=C/C=C/1C [everolimus]
- %-inhibition of SGK3 [1]: -6.4%
- %-inhibition of NDR2 [2]: -8%
- %-inhibition of FGFR3(K650M) [3]: 2.71%
- %-inhibition of YES [5]: 0%
- %-inhibition of PKCβ1 [6]: 29%
- %-inhibition of NEK1 [4]: -7%

Compound: Cc1ccc(Nc2nccc(N(C)c3ccc4c(C)n(C)nc4c3)n2)cc1S(N)(=O)=O [pazopanib]
- %-inhibition of SGK3 [1]: -3.17%
- %-inhibition of NDR2 [2]: 2.36%
- %-inhibition of YES [5]: 68%
- %-inhibition of PKCβ1 [6]: -4.7%
- %-inhibition of NEK1 [4]: 2.41%

From PMC3961306, “Comparison of the Cancer Gene Targeting and Biochemical Selectivities of All Targeted Kinase Inhibitors Approved for Clinical Use” (PLoS ONE, 2014)
